From patent publication US20230286948A1 (HUYABIO International, LLC, priority 2022, published 2023)

These compounds were tested on MV-411 cells (assay: Anti-proliferative activity against MV-411 leukemia cells (CellTiterGlo viability, 72 h)). Details: Homo sapiens, MV4-11, 72 h, MV-411 human acute monocytic leukemia cells, a second value in parentheses is a further determination.
Type: cell-based
Protocol: Procedure: MV-411 cells were seeded into 384 well plates at 2000 cells/well density in 50 μL total volume, according to plate map and were allowed to naturally sediment by waiting about 30 min on a Clean Bench. Next, plated cells were centrifuged for 1 min at 1000 rpm and the excess cells were transferred into the flasks for further culture. Cells in the assay plates were incubated (at least 4 hrs.) at 37° C., 5% CO2 followed by adding the compounds as the plate map indicated. The tests were performed in duplicates with treatment of compounds at 10 pts 3-fold titration in 384 well plates. Taxol was used as positive control while DMSO as negative control. To rule out edge effect, the wells on the edge were not seeded and therefore one 384 well plate holds 13 compounds. Cells viability was measured 72h after incubation with compounds using CellTiterGlo (promega) viability assay according to manufacturer's instruction to check the ATP production in each well.
Experiments on anti-proliferative activity against leukemia cells were conducted with some of the compounds of the invention.

Point of comparison: `CCOc1ncc(C(=O)Nc2cc(-n3cc(C(=O)NCCCN4CCOCC4)nn3)ccc2N2CCN(C)CC2)c(C(F)(F)F)n1` [Compound 29], GI50 18.4 µM. Against it:
- CN1CCN(c2ccc(-n3cc(C(=O)NCCCN4CCOCC4)nn3)cc2NC(=O)c2ncc(Cl)nc2Cl)CC1 [Compound 34] — 50-fold lower, 0.37 µM
- COc1ccc(C(=O)Nc2cc(-n3cc(C(=O)NCCCN4CCOCC4)nn3)ccc2N2CCN(C)CC2)c(C(F)(F)F)n1 [Compound 38] — 3.7-fold higher, 67.9 µM
- CN1CCN(c2ccc(-n3cc(C(=O)NCCCN4CCOCC4)nn3)cc2NC(=O)c2cnc(C#N)cc2C(F)(F)F)CC1 [Compound 13] — within 1.5-fold, 21.8 µM
- CN1CCN(c2ccc(-n3cc(C(=O)NCCCN4CCOCC4)nn3)cc2NC(=O)c2ccc(S(C)(=O)=O)nc2C(F)(F)F)CC1 [Compound 44] — 2.7-fold higher, 49.9 µM
- CSc1ccc(C(=O)Nc2cc(-n3cc(C(=O)NCCCN4CCOCC4)nn3)ccc2N2CCN(C)CC2)c(C(F)(F)F)n1 [Compound 43] — within 1.5-fold, 19.9 µM
- CN1CCN(c2ccc(-n3cc(C(=O)NCCCN4CCOCC4)nn3)cc2NC(=O)c2nnc(Cl)cc2Cl)CC1 [Compound 32] — 15-fold lower, 1.24 µM
- Cc1cc(Cl)c(C(=O)Nc2cc(-n3cc(C(=O)NCCCN4CCOCC4)nn3)ccc2N2CCN(C)CC2)cc1N [Compound 49] — 1.5-fold higher, 27.7 µM
- CSc1ncc(C(=O)Nc2cc(-n3cc(C(=O)NCCCN4CCOCC4)nn3)ccc2N2CCN(C)CC2)c(C(F)(F)F)n1 [Compound 27] — within 1.5-fold, 18.5 µM
- CN1CCN(c2ccc(-n3cc(C(=O)NCCCN4CCOCC4)nn3)cc2NC(=O)c2cnc(F)cc2C(F)(F)F)CC1 [Compound 11] — 8.6-fold lower, 2.14 µM
- C[C@@H]1CN(c2cc(F)c(-n3cc(C(=O)N4CCN(C)CC4)nn3)cc2NC(=O)c2cnc(Cl)cc2Cl)C[C@H](C)N1C [Compound 57] — 25-fold lower, 0.74 µM
- C[C@@H]1CN(c2cc(F)c(-n3cc(C(=O)NC4CCN(C)CC4)nn3)cc2NC(=O)c2cnc(Cl)cc2C(F)(F)F)C[C@H](C)N1C [Compound 52] — 15-fold lower, 1.22 µM
- COc1cc(C(F)(F)F)c(C(=O)Nc2cc(-n3cc(C(=O)NC4CCN(C)CC4)nn3)c(F)cc2N2C[C@@H](C)N(C)[C@@H](C)C2)cn1 [Compound 54] — within 1.5-fold, 14.3 µM
- C[C@@H]1CN(c2cc(F)c(-n3cc(C(=O)NCCCN4CCOCC4)nn3)cc2NC(=O)c2cnc(Cl)cc2C(F)(F)F)C[C@H](C)N1C [Compound 5] — 2.5-fold lower, 7.26 µM
- CSc1cc(C(F)(F)F)c(C(=O)Nc2cc(-n3cc(C(=O)NCCCN4CCOCC4)nn3)ccc2N2CCN(C)CC2)cn1 [Compound 14] — within 1.5-fold, 25.3 µM
- CN1CCN(c2ccc(-n3cc(C(=O)NCCCN4CCOCC4)nn3)cc2NC(=O)c2ccc(Cl)nc2C(F)(F)F)CC1 [Compound 37] — 2.4-fold higher, 44.3 µM
- CN1CCN(c2ccc(-n3cc(C(=O)NCCCN4CCOCC4)nn3)cc2NC(=O)c2cnc(S(C)(=O)=O)cc2C(F)(F)F)CC1 [Compound 15] — higher, > 237 µM
- CN1CCN(c2ccc(-n3cc(C(=O)NCCCN4CCOCC4)nn3)cc2NC(=O)c2ccc(C#N)nc2C(F)(F)F)CC1 [Compound 39] — within 1.5-fold, 20.2 µM
- CCN(CC)C(=O)c1cn(-c2cc(NC(=O)c3cnc(F)cc3C(F)(F)F)c(N3C[C@@H](C)N(C)[C@@H](C)C3)cc2F)nn1 [Compound 53] — 20-fold lower, 0.9 µM
- COc1cc(C(F)(F)F)c(C(=O)Nc2cc(-n3cc(C(=O)NCCCN4CCOCC4)nn3)ccc2N2CCN(C)CC2)cn1 [Compound 16] — 2.8-fold higher, 51.9 µM
- COc1nc(SC)ncc1C(=O)Nc1cc(-n2cc(C(=O)NCCCN3CCOCC3)nn2)ccc1N1CCN(C)CC1 [Compound 30] — 1.5-fold lower, 12.2 µM
- COc1cnc(C(=O)Nc2cc(-n3cc(C(=O)NCCCN4CCOCC4)nn3)ccc2N2CCN(C)CC2)c(Cl)n1 [Compound 35] — 7.6-fold lower, 2.42 µM
- CCN(CC)C(=O)c1cn(-c2cc(NC(=O)c3cnc(Cl)cc3Cl)c(N3C[C@@H](C)N(C)[C@@H](C)C3)cc2F)nn1 [Compound 56] — 16-fold lower, 1.17 µM
- CN1CCN(c2ccc(-n3cc(C(=O)NCCCN4CCOCC4)nn3)cc2NC(=O)c2cnc([S+](C)[O-])nc2C(F)(F)F)CC1 (stereo not shown) [Compound 28] — higher, > 200 µM
- COc1ccc(CNc2ccc(C(=O)Nc3cc(-n4cc(C(=O)NCCCN5CCOCC5)nn4)ccc3N3CCN(C)CC3)c(C(F)(F)F)n2)cc1 [Compound 42] — 5.8-fold lower, 3.17 µM
- Cc1cc(N)ncc1C(=O)Nc1cc(-n2cc(C(=O)NCCCN3CCOCC3)nn2)ccc1N1CCN(C)CC1 [Compound 24] — higher, > 200 µM
- CN1CCN(c2ccc(-n3cc(C(=O)NCCCN4CCOCC4)nn3)cc2NC(=O)c2nnc(Cl)cc2N)CC1 [Compound 33] — 1.9-fold higher, 35.3 µM
- CN1CCN(c2ccc(-n3cc(C(=O)NCCCN4CCOCC4)nn3)cc2NC(=O)c2c[nH]c(=O)cc2C(F)(F)F)CC1 [Compound 4] — higher, > 200 µM
- C[C@@H]1CN(c2cc(F)c(-n3cc(C(=O)N4CCN(C)CC4)nn3)cc2NC(=O)c2cnc(Cl)cc2C(F)(F)F)C[C@H](C)N1C [Compound 51] — 16-fold lower, 1.14 µM
- CN1CCN(c2cc(F)c(-n3cc(C(=O)NCCCN4CCOCC4)nn3)cc2NC(=O)c2c[nH]c(=O)cc2C(F)(F)F)CC1 [Compound 8] — higher, > 200 µM
- CN1CCN(c2ccc(-n3cc(C(=O)NCCCN4CCOCC4)nn3)cc2NC(=O)c2cnc(C(F)(F)F)cc2Cl)CC1 [Compound 20] — 6.4-fold lower, 2.86 µM
- Cc1nc(C(F)(F)F)ncc1C(=O)Nc1cc(-n2cc(C(=O)NCCCN3CCOCC3)nn2)ccc1N1CCN(C)CC1 [Compound 31] — 5.8-fold higher, 106 µM
- C[C@@H]1CN(c2cc(F)c(-n3cc(C(=O)NC4CCN(C)CC4)nn3)cc2NC(=O)c2cnc(C(F)(F)F)cc2Cl)C[C@H](C)N1C [Compound 58] — 27-fold lower, 0.68 µM
- Cc1cc(C(F)(F)F)c(C(=O)Nc2cc(-n3cc(C(=O)NCCCN4CCOCC4)nn3)ccc2N2CCN(C)CC2)cn1 [Compound 12] — 3.3-fold higher, 60.1 µM
- CCN(CC)C(=O)c1cn(-c2cc(NC(=O)c3cnc(Cl)cc3C(F)(F)F)c(N3C[C@@H](C)N(C)[C@@H](C)C3)cc2F)nn1 [Compound 50] — 38-fold lower, 0.49 µM
- Cc1ncc(C(=O)Nc2cc(-n3cc(C(=O)NCCCN4CCOCC4)nn3)ccc2N2CCN(C)CC2)c(C(F)(F)F)n1 [Compound 26] — 4.1-fold higher, 75.2 µM
- CN1CCN(c2ccc(-n3cc(C(=O)NCCCN4CCOCC4)nn3)cc2NC(=O)c2ncc(N)cn2)CC1 [Compound 45] — 1.6-fold lower, 11.2 µM
- C[C@@H]1CN(c2ccc(-n3cc(C(=O)NCCCN4CCOCC4)nn3)cc2NC(=O)c2c[nH]c(=O)cc2C(F)(F)F)C[C@H](C)N1C [Compound 2] — higher, > 200 µM
- CN1CCN(c2ccc(-n3cc(C(=O)NCCCN4CCOCC4)nn3)cc2NC(=O)c2ccc(C(N)=O)nc2C(F)(F)F)CC1 [Compound 40] — higher, > 200 µM
- COc1cc(C(F)(F)F)c(C(=O)Nc2cc(-n3cc(C(=O)NCCCN4CCOCC4)nn3)c(F)cc2N2C[C@@H](C)N(C)[C@@H](C)C2)cn1 [Compound 55] — 1.5-fold higher, 27.8 µM
- C[C@@H]1CN(c2cc(F)c(-n3cc(C(=O)NCCCN4CCOCC4)nn3)cc2NC(=O)c2c[nH]c(=O)cc2C(F)(F)F)C[C@H](C)N1C [Compound 6] — higher, > 200 µM
- CN1CCN(c2ccc(-n3cc(C(=O)NCCCN4CCOCC4)nn3)cc2NC(=O)c2ccc(N)nc2C(F)(F)F)CC1 [Compound 41] — 5.9-fold higher, 108 µM
- CN1CCN(c2ccc(-n3cc(C(=O)NCCCN4CCOCC4)nn3)cc2NC(=O)c2cnc(Cl)cc2Cl)CC1 [Compound 19] — 20-fold lower, 0.91 µM
- Cc1cc(F)ncc1C(=O)Nc1cc(-n2cc(C(=O)NCCCN3CCOCC3)nn2)ccc1N1CCN(C)CC1 [Compound 25] — 7.9-fold higher, 146 µM

Same assay, conditions: MV-411 human acute monocytic leukemia cells, a second value in parentheses is a further determination

Point of comparison: `CN1CCN(c2ccc(-n3cc(C(=O)NCCCN4CCOCC4)nn3)cc2NC(=O)c2cnc(C#N)cc2C(F)(F)F)CC1` [Compound 13], GI50 23.7 µM. Against it:
- CN1CCN(c2ccc(-n3cc(C(=O)NCCCN4CCOCC4)nn3)cc2NC(=O)c2cnc(F)cc2C(F)(F)F)CC1 [Compound 11] — 12-fold lower, 2.01 µM
- CSc1cc(C(F)(F)F)c(C(=O)Nc2cc(-n3cc(C(=O)NCCCN4CCOCC4)nn3)ccc2N2CCN(C)CC2)cn1 [Compound 14] — within 1.5-fold, 21.4 µM
- CN1CCN(c2ccc(-n3cc(C(=O)NCCCN4CCOCC4)nn3)cc2NC(=O)c2ccc(Cl)nc2C(F)(F)F)CC1 [Compound 37] — 1.9-fold higher, 46.2 µM
- CN1CCN(c2ccc(-n3cc(C(=O)NCCCN4CCOCC4)nn3)cc2NC(=O)c2cnc(C(F)(F)F)cc2Cl)CC1 [Compound 20] — 7.4-fold lower, 3.19 µM
- Cc1cc(C(F)(F)F)c(C(=O)Nc2cc(-n3cc(C(=O)NCCCN4CCOCC4)nn3)ccc2N2CCN(C)CC2)cn1 [Compound 12] — 3.7-fold higher, 88.8 µM
- Cc1ncc(C(=O)Nc2cc(-n3cc(C(=O)NCCCN4CCOCC4)nn3)ccc2N2CCN(C)CC2)c(C(F)(F)F)n1 [Compound 26] — 2.6-fold higher, 61.7 µM
- CN1CCN(c2ccc(-n3cc(C(=O)NCCCN4CCOCC4)nn3)cc2NC(=O)c2cnc(Cl)cc2Cl)CC1 [Compound 19] — 25-fold lower, 0.94 µM
